According to PubChem BioAssay AID1918948 (Molecular Pharmacology Branch, DTP, NCI, 2023):

System: K-562 leukemia growth, % test/control
Test: Anticancer human tumor K-562 cell line growth inhibition;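 as to viability, T/C: 100% = DMSO vehicle wells and lower values mean fewer viable cells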
Settings: spheroids with HUVEC and MSC; for IC50: curve of first compound; for viability, T/C: stronger effect = lower value
How it was run: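 Complex spheroids of tumor cells with HUVEC and human MSCs, exposed to iadademstat combined with other agents. Each agent tested in half-log steps from near clinical Cmax (else 10 microM top), DMSO ≤0.25%.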

[1] = second compound 0.1 µM, first compound 0.00316 µM
[2] = second compound 0.1 µM, first compound 0.01 µM
[3] = second compound 0.1 µM, first compound 0.0316 µM
[4] = second compound 0.1 µM, first compound 0.1 µM
[5] = second compound 0.316 µM, first compound 0.00316 µM
[6] = second compound 0.316 µM, first compound 0.01 µM
[7] = second compound 0.316 µM, first compound 0.0316 µM
[8] = second compound 0.316 µM, first compound 0.1 µM
[9] = second compound 1 µM, first compound 0.00316 µM
[10] = second compound 1 µM, first compound 0.01 µM
[11] = second compound 1 µM, first compound 0.0316 µM
[12] = second compound 1 µM, first compound 0.1 µM
[13] = second compound 3.16 µM, first compound 0.00316 µM
[14] = second compound 3.16 µM, first compound 0.01 µM
[15] = second compound 3.16 µM, first compound 0.0316 µM
[16] = second compound 3.16 µM, first compound 0.1 µM
[17] = second compound 10 µM, first compound 0.00316 µM
[18] = second compound 10 µM, first compound 0.01 µM
[19] = second compound 10 µM, first compound 0.0316 µM
[20] = second compound 10 µM, first compound 0.1 µM

CC[C@@]1(O)C(=O)OCc2c1cc1n(c2=O)Cc2cc3c(CN(C)C)c(O)ccc3nc2-1 + NC1CCC(NC2CC2c2ccccc2)CC1
IC50 (second compound 0.1 µM): 1.7 nM
IC50 (second compound 0.316 µM): 1.73 nM
IC50 (second compound 1 µM): 1.69 nM
IC50 (second compound 3.16 µM): 1.77 nM
IC50 (second compound 10 µM): 1.53 nM
viability, T/C (second compound 0.1 µM, first compound 0.000316 µM): 98.9%
viability, T/C (second compound 0.1 µM, first compound 0.001 µM): 63.2%
viability, T/C [1]: 34.7%
viability, T/C [2]: 16.3%
viability, T/C [3]: 8.26%
viability, T/C [4]: 4.03%
viability, T/C (second compound 0.316 µM, first compound 0.000316 µM): 101%
viability, T/C (second compound 0.316 µM, first compound 0.001 µM): 64.6%
viability, T/C [5]: 33.9%
viability, T/C [6]: 15.8%
viability, T/C [7]: 7.94%
viability, T/C [8]: 3.55%
viability, T/C (second compound 1 µM, first compound 0.000316 µM): 99.5%
viability, T/C (second compound 1 µM, first compound 0.001 µM): 64.5%
viability, T/C [9]: 32.8%
viability, T/C [10]: 14.4%
viability, T/C [11]: 6.59%
viability, T/C [12]: 3.47%
viability, T/C (second compound 3.16 µM, first compound 0.000316 µM): 97.6%
viability, T/C (second compound 3.16 µM, first compound 0.001 µM): 65.3%
viability, T/C [13]: 34.5%
viability, T/C [14]: 15.1%
viability, T/C [15]: 7.29%
viability, T/C [16]: 4.79%
viability, T/C (second compound 10 µM, first compound 0.000316 µM): 94.3%
viability, T/C (second compound 10 µM, first compound 0.001 µM): 62.6%
viability, T/C [17]: 28.1%
viability, T/C [18]: 12.8%
viability, T/C [19]: 5.5%
viability, T/C [20]: 2.86%

COc1cc(C2c3cc4c(cc3C(OC3OC5COC(C)OC5C(O)C3O)C3COC(=O)C23)OCO4)cc(OC)c1O (stereo not given) + NC1CCC(NC2CC2c2ccccc2)CC1
IC50 (second compound 0.1 µM): 24.2 nM
IC50 (second compound 0.316 µM): 25.9 nM
IC50 (second compound 1 µM): 27 nM
IC50 (second compound 3.16 µM): 27.5 nM
IC50 (second compound 10 µM): 26.8 nM
viability, T/C (second compound 0.1 µM, first compound 0.00949 µM): 86.3%
viability, T/C (second compound 0.1 µM, first compound 0.03 µM): 34.6%
viability, T/C (second compound 0.1 µM, first compound 0.0949 µM): 26.9%
viability, T/C (second compound 0.1 µM, first compound 0.3 µM): 35.2%
viability, T/C (second compound 0.1 µM, first compound 0.949 µM): 13.8%
viability, T/C (second compound 0.1 µM, first compound 3 µM): 3.12%
viability, T/C (second compound 0.316 µM, first compound 0.00949 µM): 87.3%
viability, T/C (second compound 0.316 µM, first compound 0.03 µM): 36%
viability, T/C (second compound 0.316 µM, first compound 0.0949 µM): 28.2%
viability, T/C (second compound 0.316 µM, first compound 0.3 µM): 36.1%
viability, T/C (second compound 0.316 µM, first compound 0.949 µM): 14%
viability, T/C (second compound 0.316 µM, first compound 3 µM): 3.11%
viability, T/C (second compound 1 µM, first compound 0.00949 µM): 86.8%
viability, T/C (second compound 1 µM, first compound 0.03 µM): 37.7%
viability, T/C (second compound 1 µM, first compound 0.0949 µM): 28.6%
viability, T/C (second compound 1 µM, first compound 0.3 µM): 35.5%
viability, T/C (second compound 1 µM, first compound 0.949 µM): 12.9%
viability, T/C (second compound 1 µM, first compound 3 µM): 3.58%
viability, T/C (second compound 3.16 µM, first compound 0.00949 µM): 87.5%
viability, T/C (second compound 3.16 µM, first compound 0.03 µM): 37%
viability, T/C (second compound 3.16 µM, first compound 0.0949 µM): 30.1%
viability, T/C (second compound 3.16 µM, first compound 0.3 µM): 33.8%
viability, T/C (second compound 3.16 µM, first compound 0.949 µM): 12.7%
viability, T/C (second compound 3.16 µM, first compound 3 µM): 3.14%
viability, T/C (second compound 10 µM, first compound 0.00949 µM): 83.2%
viability, T/C (second compound 10 µM, first compound 0.03 µM): 38.2%
viability, T/C (second compound 10 µM, first compound 0.0949 µM): 30.4%
viability, T/C (second compound 10 µM, first compound 0.3 µM): 26.7%
viability, T/C (second compound 10 µM, first compound 0.949 µM): 9.22%
viability, T/C (second compound 10 µM, first compound 3 µM): 2.85%

Nc1ncn(C2CC(O)C(CO)O2)c(=O)n1 (stereo not given) + NC1CCC(NC2CC2c2ccccc2)CC1
IC50 (second compound 0.1 µM): 695 nM
IC50 (second compound 0.316 µM): 770 nM
IC50 (second compound 1 µM): 640 nM
IC50 (second compound 3.16 µM): 396 nM
IC50 (second compound 10 µM): 69.5 nM
viability, T/C [1]: 102%
viability, T/C [2]: 98.2%
viability, T/C [3]: 89.2%
viability, T/C [4]: 71.4%
viability, T/C (second compound 0.1 µM, first compound 0.316 µM): 54.7%
viability, T/C (second compound 0.1 µM, first compound 1 µM): 47.8%
viability, T/C [5]: 104%
viability, T/C [6]: 100%
viability, T/C [7]: 90.3%
viability, T/C [8]: 71%
viability, T/C (second compound 0.316 µM, first compound 0.316 µM): 56.4%
viability, T/C (second compound 0.316 µM, first compound 1 µM): 48%
viability, T/C [9]: 103%
viability, T/C [10]: 100%
viability, T/C [11]: 89.4%
viability, T/C [12]: 72.4%
viability, T/C (second compound 1 µM, first compound 0.316 µM): 56.3%
viability, T/C (second compound 1 µM, first compound 1 µM): 46.1%
viability, T/C [13]: 102%
viability, T/C [14]: 99.5%
viability, T/C [15]: 88.1%
viability, T/C [16]: 68.4%
viability, T/C (second compound 3.16 µM, first compound 0.316 µM): 50.8%
viability, T/C (second compound 3.16 µM, first compound 1 µM): 45%
viability, T/C [17]: 89.3%
viability, T/C [18]: 84.5%
viability, T/C [19]: 64.2%
viability, T/C [20]: 45%
viability, T/C (second compound 10 µM, first compound 0.316 µM): 25.6%
viability, T/C (second compound 10 µM, first compound 1 µM): 24.9%
